Results as given in US6624156B2, “Methods of making and method of using hybrid cholinergic agents and compositions” (Board of Trustees of the University of Arkansas, priority 2001, dated 2003).

Assays:
M3 muscarinic receptor [1] = molecular target: T1, M3 muscarinic receptor (Rattus norvegicus, UniProt P08483); experiment: Inhibition of 3H-N-methylscopolamine binding to CHO cells expressing M3 muscarinic receptors; details: for IC50: read-out: IC50 (inhibition of 3H-NMS binding), CHO cells expressing M3, 0.6 nM 3H-NMS, 45 min 37° C., mean±SE of at least three assays
T1 construct: host or cells: CHO cells
Description: The objective of this experiment was to evaluate whether LCC interacted with muscarinic M3 receptors. CHO cells expressing M3 muscarinic receptors were obtained from the American Type Culture Collection (ATCC), MD. The interaction of LCC with the M3 receptors was determined by an assay which measures inhibition of ^3H-N-methylscopolamine (^3H-NMS) binding to the M3 receptor. […] Lithocholyltaurine and lithocholylglycine are physiological conjugates of lithocholic acid.
5×10^5 CHO cells (0.5 ml) were incubated for 45 minutes at 37° C. with 0.6 nM ^3H-NMS alone or with unlabeled ligand. Nonspecific binding was determined in the presence of 10.0 μM unlabeled NMS. The reaction was terminated by centrifuging 0.5 ml of cell suspension at 10,000 g for 7 minutes at room temperature. 100 μl of supernatant was sampled for determination of free ligand concentration, and the remaining liquid was carefully decanted. The cell pellet was washed, drained, and dissolved in 100 μl Soluene 350.

M3 muscarinic receptor [2] = molecular target: T1, M3 muscarinic receptor; experiment: Acetylcholine-induced inositol phosphate (IP) formation in CHO-M3 cells; format: cell-based
Description: Post-receptor (downstream) actions of LCC were determined by measuring increases in inositol phosphates (IP) after incubating cells with 3H-myo-inositol. CHO cell inositol 1,4,5-triphosphate (IP3) was determined by the methods of Hu and El-Fakahany (1990, Mol. Pharmacol. 38:895-903) and Labarca et al., (1987, Methods Enzymol. 141:192-201). 5×10^4 cells/well were incubated with 1.0 μCi/ml myo-[2-^3H]inositol for 24 hour at 37° C., treated with 20 mM LiCl for 30 minutes at 37° C. Cells were then incubated with the test agents for 30 minutes at 37° C. The IP3 fraction was separated by ion-exchange chromatography (AG2 X8 resin), and the dpm in this fraction were determined by liquid scintillation.
The highest LCC concentration tested (0.1 mM) reduced ACh-induced IP production by 80%, thereby confirming competition of LCC and ACh for the same receptor, indicating interaction of LCC and ACh with the same receptor. Thus, LCC is an M3 muscarinic receptor antagonist.

T1 sequence (P08483 whole entry): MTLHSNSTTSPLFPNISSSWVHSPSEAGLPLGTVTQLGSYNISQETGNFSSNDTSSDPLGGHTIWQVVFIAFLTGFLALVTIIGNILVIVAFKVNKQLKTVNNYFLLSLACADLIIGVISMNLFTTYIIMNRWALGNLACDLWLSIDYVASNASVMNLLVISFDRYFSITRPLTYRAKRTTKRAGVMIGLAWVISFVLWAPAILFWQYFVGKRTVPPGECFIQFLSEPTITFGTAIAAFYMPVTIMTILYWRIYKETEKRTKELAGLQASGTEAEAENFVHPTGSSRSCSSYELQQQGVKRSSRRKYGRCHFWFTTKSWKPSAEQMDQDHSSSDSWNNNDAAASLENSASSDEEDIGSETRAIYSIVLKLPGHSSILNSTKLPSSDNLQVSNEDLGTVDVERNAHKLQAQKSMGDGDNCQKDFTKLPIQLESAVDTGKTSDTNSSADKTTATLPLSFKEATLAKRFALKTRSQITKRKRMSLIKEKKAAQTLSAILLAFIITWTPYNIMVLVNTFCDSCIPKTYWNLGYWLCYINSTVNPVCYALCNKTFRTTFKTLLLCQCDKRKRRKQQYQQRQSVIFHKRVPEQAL

| potency relative to acetylcholine at inhibiting 3H-NMS binding (M3 muscarinic receptor [1]; LCC vs acetylcholine) | potency relative to carbachol at inhibiting 3H-NMS binding (M3 muscarinic receptor [1]; LCC vs carbachol) | IC50 (M3 muscarinic receptor [1]) [µM] | inhibition of ACh-induced IP formation compared with equal concentrations of LCT (M3 muscarinic receptor [2]; 10.0 μM acetylcholine) | reduction of ACh-induced IP production (M3 muscarinic receptor [2]; 0.1 mM LCC, 10.0 μM acetylcholine) [%] | effect of agent alone on IP formation (M3 muscarinic receptor [2]; LCC alone) | SMILES |
| --- | --- | --- | --- | --- | --- | --- |
| about 2 times | about 60 times | 6.4 ± 0.8 | overall greater extent | 80 | not alter IP formation | C[C@H](CCC(=O)OCC[N+](C)(C)C)[C@H]1CC[C@H]2[C@@H]3CC[C@@H]4C[C@H](O)CC[C@]4(C)[C@H]3CC[C@]12C [LCC, lithocholylcholine] |
|  |  | 228 ± 41.2 |  |  |  | C[C@H](CCC(=O)NCC(=O)O)[C@H]1CC[C@H]2[C@@H]3CC[C@@H]4C[C@H](O)CC[C@]4(C)[C@H]3CC[C@]12C [Lithocholylglycine, reference compound] |
|  |  | 165 ± 38.5 |  |  |  | C[C@H](CCC(=O)NCCS(=O)(=O)O)[C@H]1CC[C@H]2[C@@H]3CC[C@@H]4C[C@H](O)CC[C@]4(C)[C@H]3CC[C@]12C [Lithocholyltaurine, lithocholyltaurine, reference compound] |
